In a melting point compilation (Tetko et al.; mined from patent text by program, amines drawn as free bases though some values may be those of a salt):

Row | melting point | Structure (SMILES)
1 | 225 to 227 °C | O=C1NCc2c(Oc3ccccc3)cccc2N1c1ccccc1
2 | 205 to 208 °C | O=CN(Cc1cccc2ccccc12)c1cccc(NC(=O)c2cc(Cl)cc(Cl)c2)c1
3 | 67 to 68 °C | O=C1C(Cl)=C(c2ccccc2)C(=O)N1c1cccc(Cl)c1
4 | 118 to 120 °C | CC(C#N)c1ccc2oc(-c3ccccc3)nc2c1 (configuration not stated)
5 | 173 to 174 °C | ON(Cn1nnc2ccccc21)Cn1nnc2ccccc21
6 | 359 to 362 °C | O=C(O)c1ccc(C=Cc2cc(=O)c3cc(Br)ccc3o2)cc1
7 | 200 to 201 °C | CC(=O)Nc1c(C(=O)c2ccccc2)[nH]c2ccc(Cl)cc12
8 | 114 to 116 °C | COc1cc(OC)c2c(=O)[nH]c(-c3ccc(OCCNC(C)C)c(-c4ccc(S(C)(=O)=O)cc4)n3)nc2c1
9 | 128 to 131 °C | CCOC(=O)c1cnc2c(c(-c3ccccc3)nn2C)c1N(C)S(=O)(=O)c1ccc(Oc2ccncc2)cc1
10 | 123 to 124 °C | CN1CCN(C2=Nc3ccccc3Cc3nccn32)CC1
11 | 68 °C | CC(OCc1cc2cc(Cl)ccc2n1S(=O)(=O)c1ccc2c(c1)OCCN2C)C(=O)O (configuration not stated)
12 | 158 to 160 °C | COc1ccc(C2SCc3c(sc(N)c3C(=O)c3ccc(Cl)cc3)S2)cc1 (configuration not stated)
13 | 90 to 93 °C | Cc1ccc(NC(=O)c2cccc(C(F)(F)F)c2)cc1-c1ccc2scnc2c1
14 | 265 to 268 °C | COc1cc(O)c2c(=O)c3c(oc2c1)oc1cc(O)ccc13
15 | 165 to 167 °C | Nc1cccc(-c2ccc(CCN3CCN(CCc4ccc(F)cc4)CC3)cc2)n1
16 | 75 °C | CC(C)(c1ccc(O)cc1)c1ccc(OC#N)cc1
17 | 68 to 70 °C | CC(C)(C)OC(=O)CCN1CCC(O)(c2ccc(O)cc2CO)CC1
18 | 130 °C | O=C(Oc1cccc(C(F)(F)F)c1)n1c2c(c(=O)n(C3CCCCO3)c1=O)CCC2 (configuration not stated)
19 | 97 to 100 °C | CC(=O)N(Cc1ccc(C[C@@H](C(=O)O)n2cccc2)cc1)Cc1nc(-c2ccccc2)oc1C
20 | 128 to 129 °C | CN(C)c1ncc2c(=O)n(CCN3CCCCC3)sc2n1

Row | melting point | Structure (SMILES)
21 | 45 to 47 °C | CN=C(NC#N)NCC(O)COc1cccc(CN2CCCCC2)c1 (configuration not stated)
22 | 105 to 106 °C | O=C1NCC(Cc2ccccc2Cc2ccccc2)O1 (configuration not stated)
23 | 161 to 164 °C | COc1ccc(N2CC(CSCCCSc3ccnc(CNc4nc(C)nc(C)c4Cl)c3C)OC2=O)cc1 (configuration not stated)
24 | 139 to 140 °C | COc1cccc(-c2cnc(C#N)c(C#N)n2)c1
25 | 141 to 143 °C | Cc1nc(-c2ccccc2)cc(-c2ccc(C#N)o2)c1C(=O)NCCN1CCOCC1
26 | 234 °C | CCCCc1nc(=O)n2nc(-c3ccccc3)cc2[nH]1
27 | 163 to 165 °C | CCCCOc1c2c(nc3c1cnn3CC)C(O)c1ccccc1CC2 (configuration not stated)
28 | 155 to 162 °C | N#Cc1cccnc1N1CCN(CCCCc2ccc(-c3csc(N)n3)cc2)CC1
29 | 151 °C | Fc1ccc(Cn2c(NC3CCN(CCOc4nc5cccnc5s4)CC3)nc3ccccc32)cc1
30 | 239 to 246 °C | CCNc1ccc2c(c1)N1CCN=C1S2
31 | > 240 °C | CN1C(=O)CC[C@]2(C)c3ccc(-c4ccc(O)c(F)c4)cc3CC[C@@H]12
32 | 148 °C | COc1cccc(N(CC(=O)OC(C)(C)C)C(=O)CN2C(=O)c3ccccc3C2=O)c1
33 | 110 to 112 °C | Cc1noc(C)c1S(=O)(=O)n1c(COC(C)C(=O)O)cc2cc(Cl)ccc21 (configuration not stated)
34 | 160 °C | CCCCCS(=O)(=O)NC(=O)/C=C/c1ccc(OCCOC)cc1Oc1ncc(Br)cc1C
35 | 110 to 115 °C | CCCSc1nc(-c2ccc(C#N)cc2)cn1-c1ccc(I)cc1
36 | 222 to 224 °C | C#CCn1c(C#N)ccc1-c1ccc2c(c1)C(C)(C)OC(=O)N2
37 | 65 to 66 °C | Nc1cccc2c(Br)cccc12
38 | 129 to 130 °C | O=C(NCc1ccccc1)OCc1noc(-c2ccc(CN3CCCCCC3)s2)n1
39 | 129 to 130 °C | COC1CCN(CC=CC(=O)Nc2cc3c(Nc4ccc(F)c(Cl)c4)ncnc3cc2OCC2CC2)CC1
40 | 131 to 133 °C | CS(=O)(=O)N(Cc1cccnc1)c1cccc([N+](=O)[O-])c1

Row | melting point | Structure (SMILES)
41 | 134 °C | CCN(CC)C(=O)c1cc2cc(OC)c(OC)cc2c(-c2ccccc2)n1
42 | 98.4 to 102 °C | CCOC(=O)C=Cc1ccc(N(CCOC)C(=O)c2ccncc2)cc1
43 | 91 to 97 °C | COC(=O)C(O)C(CC(C)C)NC(=O)C(Cc1c[nH]cn1)NC(=O)C(CC(=O)N1CCCCC1)Cc1cccc2ccccc12 (mixture of isomers)
44 | 274 to 276 °C | Fc1cc(Cn2ccnc2)cc2c1Cc1c(-c3ccsc3)n[nH]c1-2
45 | 70.8 to 73 °C | CCN(CC)C(=O)/C=C(\C)c1ccc(OC(C)c2ccccc2)c2oc(C(C)=O)cc12 (configuration not stated)
46 | 191 to 193 °C | COc1ccc(CNc2nnc(N3CCC(O)C3)c3ccc(Cl)cc23)cc1Cl (configuration not stated)
47 | 83.5 to 84.5 °C | Cc1cc(C(F)(F)F)n2nc(SCc3ccccc3)nc2n1
48 | 183 to 184 °C | Cc1oc(-c2ccc(C(F)(F)F)cc2)cc1C(=O)Nc1cccc(C=O)c1
49 | 201 to 203 °C | Clc1nc(N2CCOCC2)nc(-n2cnc3ccccc32)n1
50 | 238 to 240 °C | NC(C(=O)O)c1ccc(C(=O)O)cc1-c1ccccc1 (configuration not stated)
51 | 212 to 218 °C | CCOC(=O)c1ncc2[nH]c3ccc(C(=O)N4CCCCC4)cc3c2c1C
52 | 275 to 278 °C | Cc1cc(C)cc(-c2c(-c3ccncc3)sc3nc(=O)cc(N)n23)c1
53 | 180 to 182 °C | Cc1oc(-c2ccccc2)nc1COc1ccc(CN(O)C(N)=O)cc1Cl
54 | 189 °C | O=C(CSc1ccc(C2=NCC(c3cc(Cl)cc(Cl)c3)(C(F)(F)F)C2)cc1Cl)NCC(F)(F)F (configuration not stated)
55 | 162 °C | CP(C)(=O)CCCOC(=O)c1ccccc1Nc1ccnc2cc(Cl)ccc12
56 | 69 to 71 °C | COc1ccc(CS[C@@H]2C[C@@H](CSCc3ccccc3)N(S(C)(=O)=O)C2)cc1
57 | 143 to 145 °C | COc1ccccc1C(Nc1ccncc1)c1ccccc1 (configuration not stated)
58 | 116 to 117 °C | Cc1cc(-c2c(-c3ccc(F)cc3)ncn2CCCN2CCOCC2)ccn1

The remaining lines, values behind:

Row | Structure (SMILES) | melting point
59 | NS(=O)(=O)c1cc2c(s1)S(=O)(=O)CC(O)C2O (configuration not stated) | 182 to 185 °C
60 | CCC12CCC(=O)C=C1c1c(cc(OCC(=O)OCC(O)CO)c(Cl)c1Cl)C2 (configuration not stated) | 135 to 138 °C
61 | COc1cc(C2=C(c3cn(CCCNC(=O)C(CO)NC(=O)OC(C)(C)C)c4ccccc34)C(=O)NC2=O)cc(OC)c1OC (configuration not stated) | 112 to 114 °C
62 | CCCCCCCCCCCCCCCCOCC(O)CCSCCCN(C)C (configuration not stated) | 30 to 32 °C
63 | CCN(CC)C(=O)c1ccccc1C(C)(C)C | 38.5 to 40.5 °C
64 | NCCc1c[nH]c2ccc(C(N)=O)cc12 | 173 to 176 °C
65 | C[C@H](CCC=O)[C@H]1CC[C@@]2(C)C3=C(CC[C@]12C)[C@@]1(C)CCC(=O)C(C)(C)C1CC3 (some centres not stated) | 110 to 115 °C
66 | CN1C(=O)[C@H](NC(=O)CCc2ccc(F)cc2F)N=C(c2ccccc2)c2ccccc21 | 79 to 81 °C
67 | CCCCCCCCCCCCCCn1ccc(C(=O)OCC)c1 | 32 to 33 °C
68 | O=C(CC1CCCC(Cl)C1)Nc1ccccc1 (configuration not stated) | 110 to 112 °C
69 | CC(C)n1cc(C(=O)O)c2ccc(Br)cc21 | 207 to 209 °C
70 | CC(C)(C)OC(=O)n1cc(C(=O)C=C(O)C2(C(=O)O)C=CC=CC2)c2ccccc21 (configuration not stated) | 138 to 141 °C
71 | COC(COc1ccc(C(=O)C(C)(C)O)cc1)OC | 52 to 53 °C
72 | COCc1cnc2c(N)cc(C)cc2c1Cl | 135 to 138 °C
73 | CCC(=NOC)c1ccc(=O)[nH]c1CC | 120 to 125 °C
74 | CC1(C(=O)O)COc2ccccc2O1 (configuration not stated) | 125 to 130 °C
75 | CCCNc1nnc(C)o1 | 46.5 to 47.5 °C
76 | OC1(c2ccc(Br)cc2)c2ccccc2C2=NCCN21 (configuration not stated) | 194 to 196 °C
77 | CC(C)(C)CC(C)(C)c1ccc(OS(=O)(=O)c2ccc(C(C)(C)C)cc2)cc1 | 68 to 71 °C
78 | O=C1NC(=O)C(S(=O)(=O)c2ccc(Br)cc2)S1 (configuration not stated) | 156 to 158 °C
79 | O=C(NCCCCCCCNC(=O)c1ccc(OC(F)(F)C(F)Cl)cc1)c1ccc(OC(F)(F)C(F)Cl)cc1 (configuration not stated) | 153 to 154 °C
80 | Cc1ccc(N(C)C)cc1C=O | 64 to 65 °C

Row | Structure (SMILES) | melting point
81 | CCCC[C@H](NC(=O)[C@H](CC(C)C)NC(=O)c1ccc(C(=O)OC)cc1)C(=O)CSCc1ccco1 | 100 to 102 °C
82 | CN1C(=O)CN=C(c2ccccc2Cl)c2cc([N+](=O)[O-])ccc21 | 220 °C
83 | [N-]=[N+]=NC[C@H]1O[C@H]([C@H](O)CO)[C@H](O)[C@@H]1O | 86 °C
84 | CCOC(=O)C=CCn1c(C(=O)c2cc(C)cc(C)c2)c(CC)c(=O)[nH]c1=O | 157 to 158 °C
85 | Cc1ccc(C(=O)C2(O)CCCCC2)cc1C | 103 to 104 °C
86 | NCC1(CC(=O)O)CCCCCC1 | 180 °C
87 | CC(=O)Oc1c(C)cc2c(c1C)C(C)CN2C(=O)C(C)C (configuration not stated) | 118 to 120 °C
88 | Oc1cc(Br)cnc1F | 146 °C
89 | CCCC(=O)Nc1cc(NC(=O)CCC)c2ccc(C)nc2c1OC(=O)CCC | 195 to 200 °C
90 | Oc1cccc2c1CCC(O)C2 (configuration not stated) | 126 to 128 °C
91 | O=C(O)CC(CC(=O)O)Cc1ccc(O)cc1 | 117 to 119 °C
92 | CC(=O)OCCn1c([N+](=O)[O-])cnc1C=O | 203 to 205 °C
93 | N#CC(=O)c1ccc(Cl)c(Cl)c1 | 70 to 71 °C
94 | NCCNC(=O)Cc1ccsc1 | 89.7 to 92.1 °C
95 | CCCCCCCCCCCCCCCc1cc2c(C(=O)O)cccc2[nH]1 | 114 to 117 °C
96 | COCC(C)N(C(=O)N(CCCl)N=O)C1(O)C(O)C(CO)OC(OCC(C)C)C1O (configuration not stated) | 66 to 68 °C
97 | CSC1NC(=O)N(C2CCCCC2)C(=O)N1C (configuration not stated) | 135 to 137 °C
98 | CCOC(=O)CN(CCOc1cc2cc3c(Nc4cc(OC)c(Cl)cc4C)c(C#N)cnc3cc2cc1OCC)CC(=O)OCC | 70 to 71 °C
99 | CCC1(C)SC(=NOC(=O)N(C)C(C)=O)N=C1C (configuration not stated) | 98 to 101 °C
100 | COC(=O)c1c2c(c3c(C)c(OC)c(OC)c(OC)c3c1-c1ccc(OC)c(OC)c1)OCOC2=O | 84 to 85 °C
101 | O[C@@H]1C=C[C@H](n2cnc3c(Cl)ncnc32)C1 (racemic) | 118 °C
102 | c1ccc(C(=NOC(=NC2CCCCC2)NC2CCCCC2)c2ccccc2)cc1 | 104 to 107 °C
